This data set has as its system HepaRG cells. Put plainly: Time-dependent PA depletion and PANO formation in cell culture medium of HepaRG cells at 37 °C and 4 °C (LC-MS/MS). Particulars: for PANO formation in cell culture medium / reduction of PA content in the supernatant: 37 °C; for PANO formation in cell culture medium: 700 nM parent PA; for PA content in cell culture medium, Mean [%]: 700 nM PA, percent of initial PA concentration; for reduction of PA content in the supernatant: after 24 h, 700 nM; for uptake and toxicity (grading): Figure 2a, toxicity grading with ref 41. The method, then: In order to measure time-dependent depletion of PA and PANO content in cell culture medium, cells were seeded at a density of 0.2 × 10^6 cells per well in a 6-well plate and cultivated as described in Section 4.2. After four weeks of cultivation, cells were adapted to serum-free medium and medium substituted with insulin, transferrin, selenium (ITS) serum extender (Capricorn Scientific, Ebsdorfergrund, Germany) 48 h prior to PA incubation for optimal LC-MS/MS measurements. […] Samples were taken after 2 h, 4 h, 8 h and 24 h.
Briefly, chromatographic separation of PA/PANO analytes was achieved on a 50 × 2.1 mm Kinetex ™ 2.6 μm CoreShell EVO C18 100 Å column protected by a SecurityGuard ™ ULTRA EVO C 18 2.1 mm guard column (both Phenomenex, Aschaffenburg, Germany) at a flow rate of 0.4 mL/min on a Shimadzu high performance liquid chromatography (HPLC) apparatus (LC-20AB, SIL-20AC HT, CTO-20AC, CBM-20A, Duisburg, Germany) coupled to an API4000 triple quadrupole MS (Sciex, Darmstadt, Germany). The following MS parameters were used for measurements in positive electrospray ionisation (ESI+) mode: ionisation voltage 2500 V, nebuliser gas 50 psi, heating gas 50 psi, curtain gas 30 psi, temperature 600 °C, collision gas level 7. The substance specific parameters are summarized in Kaltner et al. 2019 [79].

Each structure is given as a SMILES string. Several values for one entry are separate records, joined by “and”; a condition that tells them apart may be missing. Equal entries are not always repeated. A value given as a limit tells only on which side of the number the result lay.

With `C/C=C1/C[C@@H](C)[C@@](C)(O)C(=O)OCC2=CC[N+]3([O-])CC[C@@H](OC1=O)[C@@H]23` (some centres unmarked) [senecionine N-oxide], the “PANO formed in cold-incubated cells, of the applied mother compound” value (HepaRG, 4 °C, 700 nM senecionine, up to 24 h, Figure 2d) is recorded as under 1%. Besides, the “PANO formation in cell culture medium” value (HepaRG, up to 24 h) was “increased with time”.

`C/C=C(/C)C(=O)O[C@H]1CCN2CC=C(COC(=O)[C@@](O)([C@@H](C)O)C(C)(C)O)[C@H]12` [Heliosupine, heliosupine]: the “PA content in cell culture medium, Mean [%]” value (“PA content … [%]” for short) by setting is: (HepaRG, 4 °C (cold), 2h) 91.4819%; (HepaRG, 4 °C (cold), 4h) 87.9748%; (HepaRG, 4 °C (cold), 8h) 89.7595%; (HepaRG, 4 °C (cold), 24h) 78.8823%; (HepaRG, 37 °C (warm), 0h) 95.6507%; (HepaRG, 37 °C (warm), 2h) 59.8398%. In addition, the “PA content … [%]” value runs as follows: (HepaRG, 37 °C (warm), 4h) 37.2399%; (HepaRG, 37 °C (warm), 8h) 12.933%; (HepaRG, 37 °C (warm), 24h) 0.2071%. In addition, the “reduction of PA content in the supernatant” value (HepaRG) is listed as “highest decline”. Under “HepaRG”, the “uptake and toxicity (grading)” value was “strong”. In addition, the “PA in medium, Mean [%]” value (cold, 0h) is on record as 100%; the “PA in medium, Mean [%]” value (cold, 4h) is 98.142%; the “PA in medium, Mean [%]” value (cold, 8h) was 98.6729%; the “PA in medium, Mean [%]” value (cold, 24h) was determined as 85.6503%; the “PA in medium, Mean [%]” value (warm, 0h) came to 100%; the “PA in medium, Mean [%]” value (warm, 2h) worked out at 66.3099%. Moreover, the “PA in medium, Mean [%]” value is 41.9165% (warm, 4h); 15.145% (warm, 8h); 0.2418% (warm, 24h). The “PA in medium, single replicates (repl.)” value (cold, 0h) is given as 100%; the “PA in medium, single replicates (repl.)” value (cold, 2h) is 95.0989% and 96.7114%; the “PA in medium, single replicates (repl.)” value (cold, 4h) was 94.7313% and 89.2662% and 110.429%; the “PA in medium, single replicates (repl.)” value (cold, 8h) is on record as 94.1093%; the “PA in medium, single replicates (repl.)” value (cold, 24h) was 84.4985% and 86.6382%; the “PA in medium, single replicates (repl.)” value (warm, 0h) is 100%. In addition, the “PA in medium, single replicates (repl.)” value by setting is: (warm, 2h) 44.4302% and 65.8608% and 88.6387%; (warm, 4h) 27.0977% and 40.0579% and 58.5941%; (warm, 8h) 8.52% and 13.2978% and 23.6169%; (warm, 24h) 0.3741% and 0.0766% and 0.2748%.

As for `C/C=C(/C)C(=O)O[C@@H]1CCN2CC=C(COC(=O)[C@@](O)([C@H](C)O)C(C)(C)O)[C@H]12` [Echimidine, echimidine], the “PA content … [%]” value is, setting by setting: (HepaRG, 4 °C (cold), 4h) 98.8433%; (HepaRG, 4 °C (cold), 24h) 89.3074%; (HepaRG, 37 °C (warm), 2h) 85.2823%; (HepaRG, 37 °C (warm), 4h) 68.4318%; (HepaRG, 37 °C (warm), 8h) 40.2531%; (HepaRG, 37 °C (warm), 24h) 3.384%. Moreover, the “uptake and toxicity (grading)” value (HepaRG) is recorded as “medium”. For the same compound, the “PA in medium, Mean [%]” value came out at 100% (cold, 0h); 97.014% (cold, 2h); 92.1476% (cold, 4h); 94.8515% (cold, 8h); 82.2598% (cold, 24h); 100% (warm, 0h). Also, the “PA in medium, Mean [%]” value came to 80.9264% (warm, 2h); 64.0995% (warm, 4h); 36.9411% (warm, 8h); 2.921% (warm, 24h). Moreover, the “PA in medium, single replicates (repl.)” value is, setting by setting: (cold, 0h) 100%; (cold, 2h) 86.5736%; (cold, 4h) 83.0216% and 84.3494%; (cold, 8h) 82.9788% and 110.397%; (cold, 24h) 57.2342% and 76.5517%; (warm, 0h) 100%. Moreover, the “PA in medium, single replicates (repl.)” value (warm, 2h) was 77.0539% and 95.3255%; the “PA in medium, single replicates (repl.)” value (warm, 4h) is 50.2783% and 58.3297% and 83.6904%; the “PA in medium, single replicates (repl.)” value (warm, 8h) was 23.0433% and 32.0944% and 55.6854%; the “PA in medium, single replicates (repl.)” value (warm, 24h) is 0.7358% and 1.728% and 6.298%.

`C/C=C1/C[C@@H](C)[C@](O)(CO)C(=O)OCC2=CC[N@@+]3([O-])CC[C@@H](OC1=O)[C@@H]23` [retrorsine N-oxide]: the “PANO formation in cell culture medium” value (HepaRG, up to 24 h) is listed as “increased with time”.

On to `CC(C)[C@](O)(C(=O)OCC1=CCN2CC[C@@H](O)[C@@H]12)[C@@H](C)O` [Lycopsamine, lycopsamine], for which the “PA content … [%]” value by setting is: (HepaRG, 4 °C (cold), 0h) 115.66%; (HepaRG, 4 °C (cold), 2h) 114.666%; (HepaRG, 37 °C (warm), 2h) 110.255%; (HepaRG, 37 °C (warm), 4h) 110.221%. For the same compound, where the note is “HepaRG”, the “reduction of PA content in the supernatant” value is “only little reduction”. Also, the “PA in medium, Mean [%]” value is recorded as 100% (cold, 0h); 98.8899% (cold, 2h); 96.1322% (cold, 4h); 96.74% (cold, 8h); 100% (warm, 0h); 96.1576% (warm, 2h). Further, the “PA in medium, Mean [%]” value is, setting by setting: (warm, 4h) 95.7481%; (warm, 8h) 94.2429%. Moreover, the “PA in medium, single replicates (repl.)” value is 100% (cold, 0h); 94.3912% and 95.7309% (cold, 2h); 91.7949% and 100.05% (cold, 4h); 94.6446% and 94.7892% and 95.0549% (cold, 8h); 89.7134% and 94.6663% and 94.1752% and 95.3538% (cold, 24h); 100% (warm, 0h). The “PA in medium, single replicates (repl.)” value is, setting by setting: (warm, 2h) 89.3775%; (warm, 4h) 96.6594%; (warm, 8h) 86.6726% and 92.5981%; (warm, 24h) 92.6515%.

In the case of `C/C=C(/C)C(=O)O[C@@H]1CC[N+]2([O-])CC=C(COC(=O)[C@@](O)([C@H](C)O)C(C)(C)O)[C@H]12` (some centres unmarked) [echimidine N-oxide], under “HepaRG, up to 24 h”, the “PANO formation in cell culture medium” value is “increased with time”.

Take `C/C=C1/C[C@@H](C)[C@@](C)(O)C(=O)OC/C2=C/CN(C)CC[C@@H](OC1=O)C2=O` [Senkirkine, senkirkine]: the “PA content … [%]” value is, setting by setting: (HepaRG, 4 °C (cold), 8h) 116.261%; (HepaRG, 4 °C (cold), 24h) 100.349%; (HepaRG, 37 °C (warm), 24h) 51.3803%. In addition, the “PANO formation in cell culture medium” value (HepaRG, up to 24 h) is “did not form PANOs”. Also, the “uptake and toxicity (grading)” value (HepaRG) is recorded as “medium”. In addition, the “PA in medium, Mean [%]” value is, setting by setting: (cold, 0h) 100%; (cold, 8h) 99.7692%; (cold, 24h) 86.0777%; (warm, 0h) 100%; (warm, 2h) 96.897%; (warm, 4h) 92.4068%. In addition, the “PA in medium, Mean [%]” value by setting is: (warm, 8h) 78.7411%; (warm, 24h) 45.8528%. The “PA in medium, single replicates (repl.)” value is, setting by setting: (cold, 0h) 100%; (cold, 2h) 96.9078%; (cold, 4h) 94.744% and 91.9958%; (cold, 8h) 96.8217%; (cold, 24h) 79.1115%; (warm, 0h) 100%. Moreover, the “PA in medium, single replicates (repl.)” value is 86.8159% and 96.0701% (warm, 2h); 82.3204% and 92.3164% (warm, 4h); 72.1889% and 78.0729% and 85.9614% (warm, 8h); 40.9466% and 44.2184% and 52.3933% (warm, 24h).

Source of the values: publication PMC8067754, “Active Transport of Hepatotoxic Pyrrolizidine Alkaloids in HepaRG Cells” (International Journal of Molecular Sciences, 2021).
